Assay results published in US20060008574A1, “Galactosyl isomalt, method for production and use thereof” (priority 2002, published 2006).

How the values were obtained:
B. infantis DSM 20090 = test: Fermentation by human bifidobacteria; type: cell-based; parameters: key: −: no decomposition; +: decomposition and metabolization of galactose from β-1,3-galactosyl isomalt; ++: decomposition and metabolization of galactose and glucose from β-1,3-galactosyl isomalt; +++: complete decomposition of β-1,3-galcatosyl isomalt; conditions: medium 2, 48 h
Description: (§1) To investigate the prebiotic and bifidogenic properties of galactosyl isomalt, the growth of various human bifidobacteria was investigated on this substrate in vitro. An anaerobic medium of the following composition was used:
(§2) 22 strains of human bifidobacteria were first precultured in “Hungate” test tubes on the above medium 1, in which the source of carbohydrate had first been replaced by glucose (10 g/L). The strains were then inoculated onto medium 2, incubated for 48 h, and then the optical density (E578), the pH, the formation of acetate and lactate and the decrease of the β-1,3-galactosyl isomalt concentration were determined.
(§3) Various decomposition paths are distinguished with regard to the metabolization of galactosyl isomalt. Some strains degrade galactose from the substrate with a β-galactosidase and metabolize this monosaccharide (+).
(§4) Other strains additionally degrade glucose from the resulting isomalt, in addition to galactose, metabolize both monosaccharides, while this is not true for the resulting mannitol or sorbitol (++). The third group is capable of utilizing galactosyl isomalt as a substrate and also metabolizing mannitol and sorbitol (+++).

B. angulatum DSM 20225 = test: Fermentation by human bifidobacteria; type: cell-based; parameters: key: −: no decomposition; +: decomposition and metabolization of galactose from β-1,3-galactosyl isomalt; ++: decomposition and metabolization of galactose and glucose from β-1,3-galactosyl isomalt; +++: complete decomposition of β-1,3-galcatosyl isomalt; conditions: medium 2, 48 h
Description: as §1, §2, §3, §4

B. breve DSM 20213 = test: Fermentation by human bifidobacteria; type: cell-based; parameters: key: −: no decomposition; +: decomposition and metabolization of galactose from β-1,3-galactosyl isomalt; ++: decomposition and metabolization of galactose and glucose from β-1,3-galactosyl isomalt; +++: complete decomposition of β-1,3-galcatosyl isomalt; conditions: medium 2, 48 h
Description: as §1, §2, §3, §4

B. breve DSM 20091 = test: Fermentation by human bifidobacteria; type: cell-based; parameters: key: −: no decomposition; +: decomposition and metabolization of galactose from β-1,3-galactosyl isomalt; ++: decomposition and metabolization of galactose and glucose from β-1,3-galactosyl isomalt; +++: complete decomposition of β-1,3-galcatosyl isomalt; conditions: medium 2, 48 h
Description: as §1, §2, §3, §4

B. bifidum DSM 20215 = test: Fermentation by human bifidobacteria; type: cell-based; parameters: key: −: no decomposition; +: decomposition and metabolization of galactose from β-1,3-galactosyl isomalt; ++: decomposition and metabolization of galactose and glucose from β-1,3-galactosyl isomalt; +++: complete decomposition of β-1,3-galcatosyl isomalt; conditions: medium 2, 48 h
Description: as §1, §2, §3, §4

[1] = system: B. adolescentis DSM 20086; test: Fermentation by human bifidobacteria; type: cell-based; parameters: key: −: no decomposition; +: decomposition and metabolization of galactose from β-1,3-galactosyl isomalt; ++: decomposition and metabolization of galactose and glucose from β-1,3-galactosyl isomalt; +++: complete decomposition of β-1,3-galcatosyl isomalt; conditions: medium 2, 48 h
Description: as §1, §2, §3, §4

B. longum DSM 20097 = test: Fermentation by human bifidobacteria; type: cell-based; parameters: key: −: no decomposition; +: decomposition and metabolization of galactose from β-1,3-galactosyl isomalt; ++: decomposition and metabolization of galactose and glucose from β-1,3-galactosyl isomalt; +++: complete decomposition of β-1,3-galcatosyl isomalt; conditions: medium 2, 48 h
Description: as §1, §2, §3, §4

[2] = system: B. adolescentis DSM 20083; test: Fermentation by human bifidobacteria; type: cell-based; parameters: key: −: no decomposition; +: decomposition and metabolization of galactose from β-1,3-galactosyl isomalt; ++: decomposition and metabolization of galactose and glucose from β-1,3-galactosyl isomalt; +++: complete decomposition of β-1,3-galcatosyl isomalt; conditions: medium 2, 48 h
Description: as §1, §2, §3, §4

B. infantis DSM 20218 = test: Fermentation by human bifidobacteria; type: cell-based; parameters: key: −: no decomposition; +: decomposition and metabolization of galactose from β-1,3-galactosyl isomalt; ++: decomposition and metabolization of galactose and glucose from β-1,3-galactosyl isomalt; +++: complete decomposition of β-1,3-galcatosyl isomalt; conditions: medium 2, 48 h
Description: as §1, §2, §3, §4

[3] = Stability in the stomach: hydrolysis rate at pH 2.0; type: physicochemical; conditions: 1% solution, 10 mmol/L hydrochloric acid, pH 2.0, 37° C.
Description: The stability of a substance in the gastric passage can be simulated by determining the hydrolysis rate at pH 2.0. Sucrose and 1-kestose are used as controls.
In each case a 1% solution of the trisaccharides (DP 3) from Example 4 is incubated with 10 mmol/L hydrochloric acid, pH 2.0 at 37° C. for 3 h. Samples are taken from the reaction mixture after 60, 120 and 180 min and are analyzed by basic anion exchange chromatography, HPAEC.

lactase = test: Stability with respect to lactase; type: in vitro ADME; conditions: 0.9 unit lactase, 1% solution, 37° C., 6 h
From the text: The enzyme lactase that is present at the mucosa in the small intestine serves in vivo to break down lactose that gets into the small intestine and the resulting monosaccharides are absorbed into the bloodstream through the intestinal wall.
The enzyme lactase is isolated in a modified method of Wallenfels, K., and Fischer, J. (Z. Physiologische Chemie 321 (1960) 223).
Solutions 1-5: see Example 8c)
Solution 6: 1% solution of lactose in solution 1
Solution 7: 1% solution of isomalt in solution 1
Solution 8: Lactase in solution 1
(solutions 2-7), mixed and incubated at 37° C. The reaction is stopped after 6 h by heating to 95° C. for 15 min.

OCC1O[C@H](OC[C@@H](O)[C@@H](O)[C@H](O)C(O)CO)C(O)C(O[C@@H]2OC(CO)[C@H](O)C(O)C2O)[C@@H]1O (mixture of isomers) [β-1,3-Galactosyl isomalt, β-D-galactosyl-(1→3)-α-D-glucosyl-(1→6)-D-sorbitol(β-1,3-galactosyl-1,6-GPS) and β-D-galactosyl-(1→3)-α-D-glucosyl-(1→1)-D-mannitol(β-1,3-galactosyl-1,1-GPM)]
Growth on β-1,3-galactosyl isomalt (B. infantis DSM 20090): ++ | Growth on β-1,3-galactosyl isomalt (B. angulatum DSM 20225): ++ | Growth on β-1,3-galactosyl isomalt (B. breve DSM 20213): + | Growth on β-1,3-galactosyl isomalt (B. breve DSM 20091): + | Growth on β-1,3-galactosyl isomalt (B. bifidum DSM 20215): + | Growth on β-1,3-galactosyl isomalt [1]: +++ | Growth on β-1,3-galactosyl isomalt (B. longum DSM 20097): ++ | Growth on β-1,3-galactosyl isomalt [2]: +++ | Growth on β-1,3-galactosyl isomalt (B. infantis DSM 20218): − | Hydrolysis rate [%] ([3]; incubation time 0 min): 0% | Hydrolysis rate [%] ([3]; incubation time 60 min): 0% | Hydrolysis rate [%] ([3]; incubation time 120 min): 0% | Hydrolysis rate [%] ([3]; incubation time 180 min): <1% | Hydrolysis rate [%], incubation with lactase (lactase): 4.8%
